The values that follow come from patent publication US20230019491A1, “PYRIMIDINE TBK/IKKe INHIBITOR COMPOUNDS AND USES THEREOF” (Merck Patent GmbH, priority 2017, published 2023).

One test deals with T1, TBK1 (Homo sapiens, UniProt Q9UHD2).
T1 sequence (Q9UHD2 1-729): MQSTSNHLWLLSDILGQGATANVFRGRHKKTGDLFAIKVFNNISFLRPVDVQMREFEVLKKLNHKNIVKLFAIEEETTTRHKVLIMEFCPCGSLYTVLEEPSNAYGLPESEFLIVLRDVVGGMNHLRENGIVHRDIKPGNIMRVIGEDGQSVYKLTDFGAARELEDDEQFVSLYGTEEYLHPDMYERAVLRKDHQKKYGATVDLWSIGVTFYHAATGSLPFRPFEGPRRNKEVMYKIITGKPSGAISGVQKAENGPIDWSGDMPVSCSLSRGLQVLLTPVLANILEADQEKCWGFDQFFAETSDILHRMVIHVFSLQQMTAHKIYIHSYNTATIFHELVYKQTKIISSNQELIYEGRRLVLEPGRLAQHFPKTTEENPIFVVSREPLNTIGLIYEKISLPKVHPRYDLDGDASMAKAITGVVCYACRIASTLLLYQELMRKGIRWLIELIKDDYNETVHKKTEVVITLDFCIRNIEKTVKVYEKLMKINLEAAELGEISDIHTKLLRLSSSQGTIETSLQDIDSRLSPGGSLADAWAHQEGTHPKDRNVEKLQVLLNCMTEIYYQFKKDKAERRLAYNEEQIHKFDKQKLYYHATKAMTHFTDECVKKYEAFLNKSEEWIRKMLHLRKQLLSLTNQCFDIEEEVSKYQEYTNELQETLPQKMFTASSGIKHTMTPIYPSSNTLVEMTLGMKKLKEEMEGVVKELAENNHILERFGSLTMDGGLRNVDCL
Kind of test: TBK biochemical assay. The note with it: 10 point 1:4 dose response, 30 uM top concentration, 90 min at 25° C., LabChip EZ Reader II; read-out: TBK1_IC50. The procedure, abridged:
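Substrate and product were separated and quantified by microfluidic mobility-shift read (LabChip). 10 uM staurosporine served as the full-inhibition control, and the reference compound was tested from 1 uM final.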

A further test concerns the target T2, IKKε (Homo sapiens, UniProt Q14164).
T2 sequence (Q14164 1-716): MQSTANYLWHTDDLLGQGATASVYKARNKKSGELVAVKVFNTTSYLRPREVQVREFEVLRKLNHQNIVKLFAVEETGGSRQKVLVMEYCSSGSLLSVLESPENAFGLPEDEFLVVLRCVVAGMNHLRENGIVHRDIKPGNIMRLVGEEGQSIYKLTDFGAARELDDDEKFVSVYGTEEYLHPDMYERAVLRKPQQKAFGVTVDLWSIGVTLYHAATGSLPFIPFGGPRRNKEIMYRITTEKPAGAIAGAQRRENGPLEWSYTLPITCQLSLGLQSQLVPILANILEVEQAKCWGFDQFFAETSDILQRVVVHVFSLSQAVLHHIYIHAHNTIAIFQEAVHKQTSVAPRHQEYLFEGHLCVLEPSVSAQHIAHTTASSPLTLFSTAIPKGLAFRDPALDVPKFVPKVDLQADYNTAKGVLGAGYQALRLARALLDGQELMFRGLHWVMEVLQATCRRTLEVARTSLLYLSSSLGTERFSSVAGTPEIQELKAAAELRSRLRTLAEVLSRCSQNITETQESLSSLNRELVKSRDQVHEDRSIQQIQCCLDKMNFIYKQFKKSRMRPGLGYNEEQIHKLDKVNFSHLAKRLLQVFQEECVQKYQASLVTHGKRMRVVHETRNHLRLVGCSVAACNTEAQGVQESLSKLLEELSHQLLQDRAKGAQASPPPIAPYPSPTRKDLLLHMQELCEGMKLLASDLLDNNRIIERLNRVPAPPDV
Kind of test: IKKε biochemical assay. The conditions noted are these: 10 point 1:4 dose response, 30 uM top concentration, 90 min at 25° C., LabChip EZ Reader II; read-out: IKKε_IC50. An outline of the steps: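 Compounds in 1% DMSO final were incubated with IKKε enzyme and substrate at 25° C. for 90 min, then stopped. Substrate and product peaks were resolved by LabChip EZ Reader II mobility-shift read-out. Staurosporine at 10 uM final served as the full-inhibition control.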

For `C[C@@H](O)C(=O)N1CCC(Oc2ccc(-c3ccnc(Nc4ccc(C5CCN(C6COC6)CC5)cc4)n3)cc2C#N)C(F)(F)C1` (stereo partly drawn) [Example 226, 2-([33-difluoro-1-[(2R)-2-hydroxypropanoyl]piperidin-4-yl]oxy)-5-[2-([4-[1-(oxetan-3-yl)piperidin-4-yl]phenyl]amino)pyrimidin-4-yl]benzonitrile], the IC50 at TBK1 and at IKKε was below 100 nM in each case.

`N#Cc1cc(-c2ccnc(Nc3cccc(C4CCN(C(CO)CO)CC4)c3)n2)ccc1OC1CCNCC1(F)F` (stereo not shown) [Example 156, 2-(3,3-Difluoro-piperidin-4-yloxy)-5-(2-{3-[1-(2-hydroxy-1-hydroxymethyl-ethyl)-piperidin-4-yl]-phenylamino}-pyrimidin-4-yl)-benzonitrile]: the IC50 on TBK1 and at IKKε was below 100 nM each time.

`CN(C)C(=O)c1ccc(Nc2nccc(-c3ccc(OC4CCOCC4)c(C#N)n3)n2)nc1` [Example 27, 6-([4-[6-cyano-5-(oxan-4-yloxy)pyridin-2-yl]pyrimidin-2-yl]amino)-N,N-dimethylpyridine-3-carboxamide]: the IC50 on TBK1 and at IKKε was 100 to 1000 nM each time.

For `COc1nc(Nc2nccc(-c3ccc(OC4CCN(C(=O)C(C)O)CC4(F)F)c(C#N)c3)n2)ccc1C1CCN(C)CC1` (stereo not shown) [Example 146, 2-[[3,3-difluoro-1-(2-hydroxypropanoyl)piperidin-4-yl]oxy]-5-(2-[[6-methoxy-5-(1-methylpiperidin-4-yl)pyridin-2-yl]amino]pyrimidin-4-yl)benzonitrile], the IC50 at TBK1 and on IKKε was below 100 nM throughout.

For the compound `C[C@H](O)C(=O)N1CC[C@H](Oc2ccc(-c3ccnc(Nc4ccc(N5CCN(C6COC6)CC5)cc4)n3)cc2C#N)C(F)(F)C1` [Example 139, 2-[[(4S)-3,3-difluoro-1-[(2S)-2-hydroxypropanoyl]piperidin-4-yl]oxy]-5-[2-([4-[4-(oxetan-3-yl)piperazin-1-yl]phenyl]amino)pyrimidin-4-yl]benzonitrile], the IC50 on TBK1 and on IKKε was below 100 nM throughout.

Turning to `COc1nc(Nc2nccc(-c3ccc(OC4CCN(C(=O)[C@@H](O)CO)CC4(F)F)c(C#N)c3)n2)ccc1C1CCN(C2COC2)CC1` (stereo partly drawn) [Example 153, 2-[1-((S)-2,3-Dihydroxy-propionyl)-3,3-difluoro-piperidin-4-yloxy]-5-[2-(2-methoxy-1′-oxetan-3-yl-1′,2′,3′,4′,5′,6′-hexahydro-[3,4′]bipyridinyl-6-ylamino)-pyrimidin-4-yl]-benzonitrile], the IC50 on TBK1 and at IKKε was below 100 nM in each case.

In the case of `C[C@H](O)C(=O)N1CCC(Oc2ccc(-c3ccnc(Nc4ccc(C5CCN(C6COC6)CC5)cc4)n3)cc2C#N)C(F)(F)C1` (stereo partly drawn) [Example 212, 2-([3,3-difluoro-1-[(2S)-2-hydroxypropanoyl]piperidin-4-yl]oxy)-5-[2-([4-[1-(oxetan-3-yl)piperidin-4-yl]phenyl]amino)pyrimidin-4-yl]benzonitrile], the IC50 on TBK1 and at IKKε was below 100 nM throughout.

In the case of `COc1nc(Nc2nccc(-c3ccc(O[C@H]4CCN(C(=O)[C@H](C)O)C[C@@H]4F)c(C#N)c3)n2)ccc1N1CCN(C2COC2)CC1` [Example 196, 2-[(3S,4S)-3-Fluoro-1-((S)-2-hydroxy-propionyl)-piperidin-4-yloxy]-5-{2-[6-methoxy-5-(4-oxetan-3-yl-piperazin-1-yl)-pyridin-2-ylamino]-pyrimidin-4-yl}-benzonitrile], the IC50 at TBK1 and on IKKε was below 100 nM throughout.

For the compound `C[C@@H](O)C(=O)N1CCC(Oc2ccc(-c3ccnc(Nc4ccc(N5CCOCC5)cc4)n3)cc2C#N)C(F)(F)C1` (stereo partly drawn) [Example 215, 2-([3,3-difluoro-1-[(2R)-2-hydroxypropanoyl]piperidin-4-yl]oxy)-5-(2-[[4-(morpholin-4-yl)phenyl]amino]pyrimidin-4-yl)benzonitrile], the IC50 on TBK1 and on IKKε was below 100 nM in each case.

`C[C@H](O)C(=O)N1CCC(Oc2ccc(-c3ccnc(Nc4cccc(C5CCN(C(CO)CO)CC5)c4)n3)cc2C#N)C(F)(F)C1` (stereo partly drawn) [Example 157, 2-[3,3-Difluoro-1-((S)-2-hydroxy-propionyl)-piperidin-4-yloxy]-5-(2-{3-[1-(2-hydroxy-1-hydroxymethyl-ethyl)-piperidin-4-yl]-phenylamino}-pyrimidin-4-yl)-benzonitrile]: the IC50 at TBK1 and on IKKε was below 100 nM each time.

Consider `COc1nc(Nc2nccc(-c3ccc(OC4CN(C(=O)[C@H](C)O)C4)c(C#N)c3)n2)ccc1N1CCN(C2COC2)CC1` [Example 175, 2-([1-[(2S)-2-hydroxypropanoyl]azetidin-3-yl]oxy)-5-[2-([6-methoxy-5-[4-(oxetan-3-yl)piperazin-1-yl]pyridin-2-yl]amino)pyrimidin-4-yl]benzonitrile], for which the IC50 on TBK1 and at IKKε was 100 to 1000 nM throughout.

As for `C[C@@H](O)C(=O)N1CCC(Oc2ccc(-c3ccnc(Nc4cccc(C5CCN(C(CO)CO)CC5)c4)n3)cc2C#N)C(F)(F)C1` (stereo partly drawn) [Example 158, 2-[3,3-Difluoro-1-((R)-2-hydroxy-propionyl)-piperidin-4-yloxy]-5-(2-{3-[1-(2-hydroxy-1-hydroxymethyl-ethyl)-piperidin-4-yl]-phenylamino}-pyrimidin-4-yl)-benzonitrile], the IC50 at TBK1 and on IKKε was below 100 nM throughout.

Turning to `Cc1nc(C(=O)N2CCC(Oc3ccc(-c4ccnc(Nc5ccc(N6CCN(C7COC7)CC6)cc5)n4)cc3C#N)CC2)c[nH]1` [Example 274, 2-[[1-(2-methyl-1H-imidazole-4-carbonyl)piperidin-4-yl]oxy]-5-[2-([4-[4-(oxetan-3-yl)piperazin-1-yl]phenyl]amino)pyrimidin-4-yl]benzonitrile], the IC50 on TBK1 and at IKKε was below 100 nM in each case.

Take `COc1nc(C(=O)N(C)C)ccc1Nc1nccc(-c2ccc(OC3CCOCC3)c(C#N)c2)n1` [Example 48, 5-([4-[3-cyano-4-(oxan-4-yloxy)phenyl]pyrimidin-2-yl]amino)-6-methoxy-N,N-dimethylpyridine-2-carboxamide]: the IC50 on TBK1 and on IKKε was below 100 nM throughout.

As for `COc1nc(Nc2nccc(-c3ccc(O[C@H]4CCN(C(=O)[C@H](C)O)C[C@H]4F)c(C#N)c3)n2)ccc1N1CCN(C2COC2)CC1` [Example 199, 2-[[(3R,4S)-3-fluoro-1-[(2S)-2-hydroxypropanoyl]piperidin-4-yl]oxy]-5-[2-([6-methoxy-5-[4-(oxetan-3-yl)piperazin-1-yl]pyridin-2-yl]amino)pyrimidin-4-yl]benzonitrile], the IC50 at TBK1 and on IKKε was below 100 nM throughout.

For the compound `COc1nc(Nc2nccc(-c3ccc(OC4CCNCC4(F)F)c(C#N)c3)n2)ccc1C1CCN(C)CC1` (stereo not shown) [Example 144, 2-(3,3-Difluoro-piperidin-4-yloxy)-5-[2-(2-methoxy-1′-methyl-1′,2′,3′,4′,5′,6′-hexahydro-[3,4′]bipyridinyl-6-ylamino)-pyrimidin-4-yl]-benzonitrile], the IC50 at TBK1 and on IKKε was below 100 nM throughout.

`C[C@H](O)C(=O)N1CCC(Oc2ccc(-c3ccnc(Nc4ccc(N5CCN(C6COC6)CC5)cn4)n3)cc2C#N)C(F)(F)C1` (stereo partly drawn) [Example 245, 2-([33-difluoro-1-[(2S)-2-hydroxypropanoyl]piperidin-4-yl]oxy)-5-[2-([5-[4-(oxetan-3-yl)piperazin-1-yl]pyridin-2-yl]amino)pyrimidin-4-yl]benzonitrile]: the IC50 on TBK1 and at IKKε was below 100 nM in each case.
